Test results taken from US9458086B1, “Compositions and methods for adipocyte modulation” (University of South Florida (A Florida Non-Profit …, priority 2013, dated 2016).

Assays:
Bcl-xL = assay: Western blot of Bcl-xL in 3T3L1 cells; type: cell-based, mouse; conditions: SEAM treatment (200 nM)
Procedure: (§1) Mouse 3T3-L1 preadipocytes were purchased from ZenBio™ (Research Triangle Park, N.C., USA) and passaged as preconfluent cultures in DMEM high glucose (Invitrogen, Carlsbad, Calif.) with 10% newborn calf serum (Sigma-Aldrich, St. Louis, Mo.) at 37° C. and 10% CO2. Once confluent, cells were differentiated (day 0) in DMEM high glucose with 10% fetal bovine serum (Atlas Biological, Fort Collins, Colo.), 10 μg/mL bovine insulin (Sigma), […] dexamethasone (Sigma), and 0.5 mM isobutyl-1-methylxanthine (Sigma). On day 2, media was replaced with DMEM high glucose, 10% FBS, and bovine insulin. Day 4 and afterwards, cells were cultured in DMEM high glucose plus 10% FBS.
(§2) Protein lysates were obtained from 3T3L1 cells using lysis buffer containing proteases. Protein lysates (40 μg) were separated by SDS-PAGE with 10% gels. Proteins were electrophoretically transferred to nitrocellulose membranes, blocked with Tris-buffered saline containing 0.1% Tween 20 and 5% nonfat dried milk, washed, and incubated with a polyclonal anti-PARP (Upstate Biotechnology), anti-XIAP (AnaSpec), anti-Bcl2, anti-caspase 9 (Calbiochem), anti-Bcl-x (Santa Cruz Biotechnology), and anti-PKCδ (Cell Signaling) or antibody against the hinge-region of PKCδII (Patel lab (19)). […] Data was analyzed using AlphaView® software.

PKCδI [1] = assay: Western blot of PKCδI expression in differentiating 3T3L1 cells; type: cell-based, mouse
Procedure: as §1
(§3) Protein lysates were obtained from 3T3L1 cells using lysis buffer containing proteases. Protein lysates (40 μg) were separated by SDS-PAGE with 10% gels. Proteins were electrophoretically transferred to nitrocellulose membranes, blocked with Tris-buffered saline containing 0.1% Tween 20 and 5% nonfat dried milk, washed, and incubated with a polyclonal anti-PARP (Upstate Biotechnology), anti-XIAP (AnaSpec), anti-Bcl2, anti-caspase 9 (Calbiochem), anti-Bcl-x (Santa Cruz Biotechnology), and anti-PKCδ (Cell Signaling) or antibody against the hinge-region of PKCδII (Patel lab (19)). This antibody is specific for PKCδII, as it recognizes the extended hinge region, which is absent in PKCδI (24). Other antibodies used are as follows: PPARγ, Akt, pAkt 473, TNFα, Adiponectin, p-BAD (S316), p-PTEN (Cell Signaling, Boston, Mass.), β-actin A5441 (Sigma). After incubation with anti-rabbit IgG-HRP, enhanced chemiluminescence (Pierce) was used for detection. FluorChem M™ (Protein Simple) imaging system was used to capture digital chemiluminescence images and process western blots. Data was analyzed using AlphaView® software.

PKCδII [2] = assay: RT-PCR of PKCδII splicing/mRNA in differentiating 3T3L1 preadipocytes; type: cell-based, mouse
Procedure: as §1
Total RNA was isolated from 3T3L1 cells with RNA-Bee (Tel Test Center) as recommended by the manufacturer. RNA was also obtained from adipose tissues of mice fed with or without resveratrol. 2 μg RNA was used to synthesize first-strand cDNA with an Oligo(dT) primer and Omniscript R kit (Qiagen). The following primers were used in PCR: PKCδ forward primer 5′ […] 3′ (SEQ ID NO:1); reverse primer 5′ […] 3′ (SEQ ID NO:2). These primers amplified PKCδI and PKCδII simultaneously. […] Following PCR, 5% of products were resolved on 6% PAGE gels and detected by silver staining. The PCR reaction was optimized for linear range amplification to allow for quantification of products. […]

adiponectin = assay: Western blot of adiponectin in 3T3L1 cells; type: cell-based, mouse; conditions: SEAM treatment, days 4 and 8
Procedure: as §1, §2

Bcl2 = assay: Western blot of Bcl2 in 3T3L1 cells; type: cell-based, mouse; conditions: SEAM treatment (200 nM)
Procedure: as §1, §2

[3] = test system: PKCδ exon 9 5′ splice site II; assay: pSPL3-PKCδ splicing minigene RT-PCR; type: cell-based, mouse; conditions: 200 nM SEAM, 24 hours after minigene transfection, harvested on day 2
Text: The pSPL3 vector was modified to remove cryptic 5′ splice sites as described in a previous publication (25). The pSPL3 vector was digested with BamHI (in the MCS) and NheI. Primers to amplify genomic PKCδ from 3T3L1 cells flanked mouse PKCδ exon 9 and were designed to include the BclI site in the forward primer (in bold type) and BcuI site in the reverse primers (in bold type). The forward primer was designed to amplify 137 bp of 3′ intronic sequence such that the product contained the branch point and 3′ splice site and the reverse primer included 284 bp 5′ intronic sequence and included the 5′ splice site II of exon 9. The primers were: forward primer 5′ […] 3′ (SEQ ID NO:6); reverse primer 5′ […] 3′ (SEQ ID NO:7). The product was verified by sequencing and ligated into the digested pSPL3 vector. The overhangs of the selected restriction enzymes can hybridize and this enabled cloning of the PCR product in the proper orientation. The resulting pSPL3-PKCδ minigene was verified by restriction digestion and sequencing.
Splicing minigenes are advantageous to study alternative splicing events without influence from endogenous factors. […] Utilization of 5′ splice site I on exon 9 gave rise to PKCδI while utilization of downstream 5′ splice site II gave rise to PKCδII. After 24 hours, the cells were treated with 200 nM SEAM. […]

PPARγ = assay: Western blot of PPARγ (adipogenesis marker) in differentiating 3T3L1 cells; type: cell-based, mouse
Procedure: as §1, §3

[4] = test system: cPKCs: α, βI, βII, γ; nPKCs: η, ε, θ; aPKCs: ζ, λ; assay: Immunoblotting for other PKC family isoforms (specificity); type: cell-based, mouse; conditions: SEAM treatment (200 nM)
Procedure: as §1
Protein lysates were obtained from 3T3L1 cells using lysis buffer containing proteases. Protein lysates (40 μg) were separated by SDS-PAGE with 10% gels. […] Data was analyzed using AlphaView® software.
3-hydroxystilbene was modified by Mannich coupling to add bis-diethylaminomethyl group (described in Example 1). Several synthetic stilbenoids with structural modifications to the basic resveratrol structure were evaluated. […]

3T3L1 adipocytes [5] = assay: Apoptosis assay, Annexin V-PI staining by flow cytometry; type: cell-based, mouse
Procedure: as §1
3T3L1 preadipocytes were cultured on 60 mm dishes as described above. For apoptosis assays, cells were serum-starved for 48 hours. Media were collected and cells were washed one time with HBSS and then trypsinized for 5.0 minutes. Five ml complete media was added to neutralize the trypsin. Media and washes were pooled and centrifuged at 1200 RPMS for five minutes. […] 400 μl binding buffer was added and cells were analyzed by flow cytometry within one hour Annexin V-FITC and PI fluorescence, which stains apoptotic cells, were measured using an Accuri C6 flow cytometer.

3T3L1 cells = assay: Cytotoxicity assay / cell viability; type: cell-based, mouse; conditions: 200 nM SEAM in 3T3L1 cells
Procedure: WST-1 (Roche Molecular Biochemicals, IN) was added to 3T3L1 cells (in triplicate) that are treated without or with SEAM to a final concentration of 10% (vol/vol). Cells were incubated for 2 hours at 37° C. The formazon dye produced by viable cells was quantified using a spectrophotometer set at a wavelength of 440 nm and absorbance recorded for each well (reference wavelength, 690 nm).
Immunoblotting for PPARγ and adiponectin was also performed to determine whether SEAM affected differentiation of 3T3L1 cells. […] Total apoptosis was measured by flow cytometry using Annexin V-PI staining (FIG. 8d). To determine whether SEAM was toxic to cells, cell viability was evaluated upon treatment of 200 nM SEAM in 3T3L1 cells. Cytotoxicity was measured using the […] assay. This assay measures the reducing potential of the cell using a colorimetric reaction. Viable cells reduce the […] to a colored formazan product.

PKCδI [6] = assay: PCR of PKCδI in adipose tissue of mice fed resveratrol; type: in vivo, mouse; conditions: 400 mg resveratrol per kg body weight in diet, once daily
Procedure: (§4) Total RNA was obtained from mouse adipose tissues from Dr. You (University of South Florida). 8-week old male C57BL/6J (Jackson labs) were either fed a chow diet (control) or diet with added 400 mg resveratrol per kg body weight, once daily 23); n=5. Total RNA was extracted from adipose tissues from these mice. All protocols were reviewed and approved by the Institutional Animal Care and Use Committee at University of South Florida, Division of Comparative Medicine.
(§5) Total RNA was isolated from 3T3L1 cells with RNA-Bee (Tel Test Center) as recommended by the manufacturer. RNA was also obtained from adipose tissues of mice fed with or without resveratrol. 2 μg RNA was used to synthesize first-strand cDNA with an Oligo(dT) primer and Omniscript R kit (Qiagen). The following primers were used in PCR: PKCδ forward primer 5′ […] 3′ (SEQ ID NO:1); reverse primer 5′ […] 3′ (SEQ ID NO:2). These primers amplified PKCδI and PKCδII simultaneously. PKCδII-specific antisense primer (5′ […]3′) (SEQ ID NO:3). β-actin forward primer 5′ […] 3′ (SEQ ID NO:4); reverse primer 5′ […] 3′ (SEQ ID NO:5). Following PCR, 5% of products were resolved on 6% PAGE gels and detected by silver staining. The PCR reaction was optimized for linear range amplification to allow for quantification of products. Densitometric analyses of the bands were done using the Un-Scan IT™ Analysis Software (Silk Scientific).

TNFα = conditions: mice, 400 mg resveratrol; earlier studies (23); cited from earlier work
PKCδII [7] = assay: Western blot of PKCδII expression in differentiating 3T3L1 cells; type: cell-based, mouse; conditions: for inhibition of PKCδII expression levels: 25 μM administered on day 5 (mature adipocyte)
Procedure: as §1, §3

3T3L1 adipocytes [8] = assay: Oil Red O staining for lipid accumulation; type: cell-based, mouse; conditions: 25 μM on day 4, Oil Red O staining on day 8
Procedure: as §1
3T3L1 preadipocytes were washed with PBS and fixed with 10% formalin for 30 minutes. The cells were then rinsed and incubated with 60% isopropanol for 5 minutes. Oil Red O stain (0.15%, Sigma) was added and incubated for 10 minutes. Images were captured with Nixon confocal microscope.

SIRT1 = conditions: mice, 400 mg resveratrol; earlier studies (23); cited from earlier work
PKCδII [9] = assay: PCR of PKCδII in adipose tissue of mice fed resveratrol; type: in vivo, mouse; conditions: 400 mg resveratrol per kg body weight in diet, once daily
Procedure: as §4, §5

3T3L1 preadipocytes = assay: Resveratrol dose finding in differentiating 3T3L1 preadipocytes; type: cell-based, mouse; conditions: doses 10 to 100 μM tested, data not shown
Procedure: as §1
Several studies have shown its role in inhibiting adipose cell proliferation, lipid accumulation and stimulation of apoptosis and lipolysis in mature adipocytes. Further, resveratrol is shown to modulate alternative splicing of genes (29). However, its mechanisms of action and target proteins in apoptotic pathways during adipogenesis was not determined. […] Resveratrol treatment administered on day 5 (mature adipcoyte) inhibited PKCδII expression levels by 65% on day 6 and by more than 90% on day 8 (FIG. 7I a, b, c). Simultaneously, up to a 50% increase in PKCδI levels was observed on days 6 and 8.

CCN(CC)Cc1ccc(/C(C)=C(\C)c2ccc(CN(CC)CC)c(O)c2)cc1O [SEAM]
decrease of BclxL levels (Bcl-xL): 20% | PKCδI expression (PKCδI [1]; 100 nM, data not shown): not affected | PKCδI levels (PKCδI [1]; SEAM treatment (200 nM)): did not affect | inhibition of PKCδII splicing (PKCδII [2]; 100 nM, data not shown): 60% | decrease of PKCδII compared to control cells (PKCδII [2]; 200 nM): 80% | decrease of adiponectin compared to control (adiponectin): 20% | decrease of Bcl2 levels (Bcl2): 40% | utilization of 5′ splice site II [3]: inhibited | decrease of PPARγ2 compared to control (PPARγ; SEAM treatment, days 4 and 8): 5% | expression levels of other PKC isoforms [4]: did not affect | apoptosis levels (3T3L1 adipocytes [5]; 200 nM SEAM, Annexin V-PI staining): increased compared to control | cell viability (3T3L1 cells): viable

Oc1ccc(C=Cc2cc(O)cc(O)c2)cc1 [resveratrol, 3,5,4′-trihydroxystilbene]
increase in PKCδI expression in adipose tissue (PKCδI [6]): 25% | increase in PKCδI levels (PKCδI [1]; 25 μM resveratrol, days 6 and 8): ≤ 50% | TNFα levels in adipose tissue (TNFα): decreased | decrease in PKCδII expression (PKCδII [7]; 25 μM administered on day 0 (preadipocyte)): less than 10% | inhibition of PKCδII expression levels (PKCδII [7]; read on day 6): 65% | inhibition of PKCδII expression levels (PKCδII [7]; read on day 8): more than 90% | decline in lipid accumulation compared to control (3T3L1 adipocytes [8]): greater than 75% | PPARγ2 levels (PPARγ; 25 μM resveratrol, day 8): inhibition of PPARγ2 levels | decline of PPARγ1 levels (PPARγ; 25 μM resveratrol, day 8): 30% | SIRT1 levels in adipose tissue (SIRT1): increased | decrease in PKCδII expression in adipose tissue (PKCδII [9]): 70% | effect on the cells (3T3L1 preadipocytes; 100 μM resveratrol): detrimental to the cells | optimal dose (3T3L1 preadipocytes): 25 µM | adipocytes undergoing apoptosis (3T3L1 adipocytes [5]; 25 μM on day 2, collected on day 8): 70%
